Experimental data reported in publication PMC9499506, “TNF-α and IL-1β Modulate Blood-Brain Barrier Permeability and Decrease Amyloid-β Peptide Efflux in a Human Blood-Brain Barrier Model” (International Journal of Molecular Sciences, 2022).

Experiments:
BLEC monolayer = assay: Effect of cytokines on BLEC monolayer permeability to lucifer yellow (PeLY); assay type: cell-based, human; details: for increase in transcellular passage of LY through BLEC monolayer compared to control / increase in paracellular passage of LY through BLEC monolayer compared to control: 10 ng·mL^−1, 24 h; for increase in transcellular passage of LY through BLEC monolayer compared to control: PeLY 37 °C minus PeLY 4 °C; for increase in paracellular passage of LY through BLEC monolayer compared to control: PeLY at 4 °C; for PeLY of BLECs after cytokine treatment: 10 ng·mL^−1 basolateral, 24 h, LY 50 µM apical-to-basolateral, RH buffer, 37 °C, 60 min, untreated 0.54 ± 0.03, mean ± SEM
Protocol: Next, we examined the effect of TNF-α and IL-1β on BBB permeability. The physical integrity of the BLECs was monitored by measuring the rate of passage of the small hydrophilic marker lucifer yellow (LY; ~400 Da) from the upper to the lower compartment to calculate the endothelial permeability coefficient of LY (PeLY).
To discriminate the impact of TNF-α and IL-1β on these different pathways and based on our previous PeLY results obtained at 37 °C informing on the global crossing of PeLY (paracellular and transcellular), a PeLY experiment was also performed at 4 °C. […] Thus, inhibition of the transcellular transport allows us to observe only the modification on the paracellular permeability. Then, the transcellular transport of LY, corresponding to the difference between global PeLY and PeLY at 4 °C, was determined.
(§1) Each condition was studied in triplicate.
The BLEC monolayer integrity was evaluated after each treatment using the method described by Dehouck and colleagues. The endothelial permeability coefficient (Pe) was evaluated regarding the apical-to-basolateral transport of the LY integrity marker used at a final concentration of 50 µM in RH buffer at 37 °C. Briefly, the inserts containing BLECs were transferred to a new 12-well plate containing warm RH buffer (corresponding to the basolateral compartment), and then a volume of 500 µL of warm RH with 50 µM of LY buffer was added to the apical compartment. The inserts containing the BLECs and RH buffer with 50 µM of LY were then transferred to a new well containing warm RH every 20 min for 1 hour. […] For each condition, coculturing was performed in triplicate. To determine the PeLY values for BLECs, the slope of the clearance curves (PS = permeability × surface area product; in µL·min^−1) corresponding to the volume cleared from the apical to the basolateral compartment (in µL) for 60 min was calculated for the filters with only Matrigel coating and for those with Matrigel coating and BLECs, denoted PSf and PSt, respectively. From these values, the PS values for BLECs (PSe) were determined according to the formula “[…]”. Then, the PeLY values for BLECs (in cm·min^−1) were obtained by the calculation “PeLY = PSe/S”, with PSe in cm^3·min^−1 and S being the filter surface area (= 1.12 cm^2). The same experiment was also performed at 4 °C to block the transcellular permeability of LY and to identify only the paracellular permeability of LY. Following these experiments, the transcellular permeability can be deduced, which corresponds to the PeLY values at 37 °C subtracted by those of PeLY at 4 °C. The mass balance (in %) was determined from the amount of LY in the apical and basolateral compartment at the end of the experiment divided by the total amount initially added in the apical compartment at time zero. To be taken into consideration for the Pe determination, the mass balance should be between 80% and 120%.

BLECs = assay: Effect of cytokines on Aβ1–40Cy5 transcytosis quotient across BLECs; assay type: cell-based, human; details: cytokine 10 ng·mL^−1 basolateral, 24 h; then 30 min transport at 37 °C; compared to control
Protocol: As TNF-α and IL-1β modulated the protein expression levels of LRP1, BCRP and PICALM (Figure 4), we investigated the effect of these cytokines on the transport of Aβ peptide across the BBB. After 24 h of treatment with proinflammatory cytokines, the apical-to-basolateral (influx) and basolateral-to-apical (efflux) Aβ1–40Cy5 peptide transports across the BLECs were assessed in the presence of FITC-inulin. The Aβ1–40 peptide was used in all experiments, as it is the most abundant amyloid peptide found on cerebral blood vessels. FITC-inulin was used to determine the nonspecific transcytosis quotient (Figure 5A). Indeed, unlike Aβ peptide, FITC-inulin is not actively cleared at the BBB and acts as a reference marker of paracellular permeability, thus as previously reported.
as §1
After proinflammatory cytokine treatments, the influx (apical-to-basolateral) and the efflux (basolateral-to-apical) transport of Aβ1–40 peptides across BLECs were investigated as previously described. Briefly, for influx studies, inserts with BLECs were transferred to new 12-well plates containing 1.5 mL of RH–HSA 0.1% (the receiver solution) per well. In the insert, 0.5 mL of RH-HSA 0.1% supplemented with 10 nM Aβ1–40Cy5 peptide were added (the donor solution). For efflux studies, inserts with BLECs were transferred to new 12-well plates, this time containing 1.5 mL of RH-has 0.1% with 10 nM fluorescent Aβ1–40Cy5 (the donor solution) peptide, then 0.5 mL of RH-HSA 0.1% (the receiver solution) was added in the insert. […] The BBB integrity was determined by measuring the endothelial permeability of a radioactive integrity marker, ^14C-sucrose, using the same method of calculation as described in Section 4.4. […] At the end of the experiment, aliquots of the receiver and donor solutions were collected, and the fluorescence compounds (Aβ1–40Cy5 peptide and FITC-inulin) were quantified with a spectrofluorimeter (Synergy H1, Biotek, Colmar, France). The radioactivity of ^14C-saccharose was measured using a scintillation counter (Hidex 300 SL, Hidex, Turku, Finland). The apparent permeability coefficients (cm.sec^−1) of Aβ1–40Cy5 peptide and FITC-inulin were calculated as previously described. Once influx and efflux Papp were determined for each molecule, the specific transport of Aβ1–40Cy5 across the BLECs in influx and efflux directions were identified by calculating the transcytosis quotient of Aβ1–40Cy5 using the following formulas: “influx transcytosis quotient of Aβ1–40Cy5 = (influx Aβ1–40Cy5 Papp)/(influx FITC-inulin Papp)” or “efflux transcytosis quotient of Aβ1–40Cy5 = (efflux Aβ1–40Cy5 Papp)/(efflux FITC-inulin Papp)”. For each filter, the mass balance was determined as described in Section 4.4. […]

Substance | increase in transcellular passage of LY through BLEC monolayer compared to control (BLEC monolayer) | increase in paracellular passage of LY through BLEC monolayer compared to control (BLEC monolayer) | PeLY of BLECs after cytokine treatment (BLEC monolayer) | greater increase in transcellular passage of LY with IL-1β compared to TNF-α treatment (BLEC monolayer; both 10 ng·mL^−1, 24 h) | apical-to-basolateral transcytosis quotient (specific influx) of Aβ1–40Cy5 peptide (BLECs) | reduction of basolateral-to-apical transcytosis quotient (specific efflux) of Aβ1–40Cy5 peptide (BLECs) | greater increase in paracellular passage of LY with TNF-α compared to IL-1β treatment (BLEC monolayer; both 10 ng·mL^−1, 24 h)
interleukin-1β [IL-1β] | 94.2% | 41.3% | 0.95 ± 0.05 × 10^−3 cm·min^−1 | 54.2% | not modified | 25.9% | –
tumor necrosis factor-α [TNF-α] | 40.1% | 175.2% | 1.00 ± 0.03 × 10^−3 cm·min^−1 | – | not modified | 26.9% | 133.9%
